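Five compound concentrations were applied to cells in 96-well plates for 48 hours; endpoints were derived by simple linear interpolation of the resulting dose-response curve. GI50: concentration for 50% inhibition of growth.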 Activity calls are given as the source filed them. Rule as the data show it: active = GI50 up to about 1.1 µM and inactive = higher.
Columns and labels:
Assay in all cases: NCI-60 cell line screen, 48 h
COLO 205 = tested on: COLO 205
MCF7 = tested on: MCF7
MDA-N = tested on: MDA-N
TK-10 = tested on: TK-10
MOLT-4 = tested on: MOLT-4
UACC-62 = tested on: UACC-62
OVCAR-4 = tested on: OVCAR-4
HOP-92 = tested on: HOP-92
HCT-116 = tested on: HCT-116
SK-MEL-5 = tested on: SK-MEL-5
U-251 = tested on: U-251
SK-OV-3 = tested on: SK-OV-3
CAKI-1 = tested on: CAKI-1
PC-3 = tested on: PC-3
M14 = tested on: M14
DU-145 = tested on: DU-145
K562 = tested on: K562
MDA-MB-435 = tested on: MDA-MB-435
UO-31 = tested on: UO-31
MDA-MB-231 = tested on: MDA-MB-231
EKVX = tested on: EKVX
CCRF-CEM = tested on: CCRF-CEM
HCC 2998 = tested on: HCC 2998
BT-549 = tested on: BT-549
SR = tested on: SR
OVCAR-8 = tested on: OVCAR-8
IGROV-1 = tested on: IGROV-1
RXF 393 = tested on: RXF 393
NCI-H23 = tested on: NCI-H23
A549 = tested on: A549
SNB-19 = tested on: SNB-19
Malme-3M = tested on: Malme-3M
ACHN = tested on: ACHN
SF-268 = tested on: SF-268
SW-620 = tested on: SW-620
Hs-578T = tested on: Hs-578T
LOX IMVI = tested on: LOX IMVI
A498 = tested on: A498
HL-60 = tested on: HL-60
UACC-257 = tested on: UACC-257
SK-MEL-28 = tested on: SK-MEL-28
NCI/ADR-RES = tested on: NCI/ADR-RES
OVCAR-5 = tested on: OVCAR-5
NCI-H460 = tested on: NCI-H460
HOP-62 = tested on: HOP-62
786-0 = tested on: 786-0
SF-539 = tested on: SF-539
HCT-15 = tested on: HCT-15
SN12C = tested on: SN12C
SK-MEL-2 = tested on: SK-MEL-2
OVCAR-3 = tested on: OVCAR-3
HT-29 = tested on: HT-29
RPMI-8226 = tested on: RPMI-8226
T47D = tested on: T47D
KM12 = tested on: KM12
NCI-H522 = tested on: NCI-H522
NCI-H226 = tested on: NCI-H226
SF-295 = tested on: SF-295
SNB-75 = tested on: SNB-75

COC1(OC)C[C@H](C)[C@@]23O[C@]24C2=CC(=O)C=CC2=N[C@H]3C#C/C=C\C#C[C@]14O
GI50 (COLO 205): 541 nM (active)
GI50 (MCF7): 276 nM (active)
GI50 (MDA-N): 1080 nM (active)
GI50 (TK-10): 893 nM (active)
GI50 (MOLT-4): 18.7 nM (active)
GI50 (UACC-62): 1190 nM (inactive)
GI50 (OVCAR-4): 501 nM (active)
GI50 (HOP-92): 532 nM (active)
GI50 (HCT-116): 364 nM (active)
GI50 (SK-MEL-5): 323 nM (active)
GI50 (U-251): 805 nM (active)
GI50 (SK-OV-3): 1360 nM (inactive)
GI50 (CAKI-1): 284 nM (active)
GI50 (PC-3): 753 nM (active)
GI50 (M14): 530 nM (active)
GI50 (DU-145): 1040 nM (active)
GI50 (K562): 359 nM (active)
GI50 (MDA-MB-435): 546 nM (active)
GI50 (UO-31): 355 nM (active)
GI50 (MDA-MB-231): 621 nM (active)
GI50 (EKVX): 578 nM (active)
GI50 (CCRF-CEM): 44 nM (active)
GI50 (HCC 2998): 670 nM (active)
GI50 (BT-549): 1000 nM (active)
GI50 (SR): 32 nM (active)
GI50 (OVCAR-8): 659 nM (active)
GI50 (IGROV-1): 724 nM (active)
GI50 (RXF 393): 537 nM (active)
GI50 (NCI-H23): 411 nM (active)
GI50 (A549): 710 nM (active)
GI50 (SNB-19): 1550 nM (inactive)
GI50 (Malme-3M): 671 nM (active)
GI50 (ACHN): 259 nM (active)
GI50 (SF-268): 711 nM (active)
GI50 (SW-620): 415 nM (active)
GI50 (Hs-578T): 904 nM (active)
GI50 (LOX IMVI): 300 nM (active)
GI50 (A498): 910 nM (active)
GI50 (HL-60): 43.1 nM (active)
GI50 (UACC-257): 1490 nM (inactive)
GI50 (SK-MEL-28): 1080 nM (active)
GI50 (NCI/ADR-RES): 1590 nM (inactive)
GI50 (OVCAR-5): 390 nM (active)
GI50 (NCI-H460): 344 nM (active)
GI50 (HOP-62): 787 nM (active)
GI50 (786-0): 67.5 nM (active)
GI50 (SF-539): 634 nM (active)
GI50 (HCT-15): 432 nM
GI50 (SN12C): 973 nM (active)
GI50 (SK-MEL-2): 1660 nM (inactive)
GI50 (OVCAR-3): 431 nM (active)
GI50 (HT-29): 266 nM (active)
GI50 (RPMI-8226): 123 nM (active)
GI50 (T47D): 427 nM (active)
GI50 (KM12): 474 nM (active)
GI50 (NCI-H522): 46.9 nM (active)
GI50 (NCI-H226): 700 nM (active)
GI50 (SF-295): 1640 nM (inactive)
GI50 (SNB-75): 133 nM (active)
